The test addresses T1, HCT116 TK (cellular transketolase, colon carcinoma HCT116) (Homo sapiens, UniProt P29401).
T1 construct: endogenous in cells; host or cells: HCT116 colon carcinoma cells
T1 sequence (P29401 1-623): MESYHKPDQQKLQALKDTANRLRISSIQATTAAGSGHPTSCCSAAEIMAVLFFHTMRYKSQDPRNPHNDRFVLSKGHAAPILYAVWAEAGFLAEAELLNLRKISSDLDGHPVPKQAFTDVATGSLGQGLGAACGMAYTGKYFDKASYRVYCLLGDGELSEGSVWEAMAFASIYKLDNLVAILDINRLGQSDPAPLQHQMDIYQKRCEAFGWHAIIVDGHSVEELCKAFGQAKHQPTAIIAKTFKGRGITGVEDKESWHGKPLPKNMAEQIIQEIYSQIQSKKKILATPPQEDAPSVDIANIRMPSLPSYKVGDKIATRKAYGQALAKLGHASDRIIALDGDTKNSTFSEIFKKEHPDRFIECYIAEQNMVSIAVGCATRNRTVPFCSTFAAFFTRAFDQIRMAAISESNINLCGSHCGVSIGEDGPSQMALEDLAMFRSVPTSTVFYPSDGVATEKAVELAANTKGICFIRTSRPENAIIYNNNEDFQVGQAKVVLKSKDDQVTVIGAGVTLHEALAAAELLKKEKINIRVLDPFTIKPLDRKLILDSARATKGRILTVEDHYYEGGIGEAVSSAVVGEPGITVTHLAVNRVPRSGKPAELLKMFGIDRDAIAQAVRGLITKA
As to the kind of experiment: Cellular assay: transketolase activity in lysates of treated HCT116 cells. Format: cell-based. The settings on record: colon carcinoma HCT116, thiamine-free DMEM, 48 hours treatment, mean. On the procedure: Log-phase cells were trypsinized, washed and resuspended in thiamine-free DMEM. Optimization of the initial cell counts was carried out for each cell line prior to IC50 measurements. […] Using this initial cell count, IC50 could be monitored for six days.
Media containing 8,000 cells (95 μl) were used to seed individual wells in a 96-well clear-bottom cell cultured-treated sterile plate. Inhibitor compounds were dissolved in 100% DMSO as 10 mM solutions. Serial dilutions were then made in 100% DMSO to make up a 100× stock, then diluted to 20× in double-deionized H2O (ddH2O). Twenty-four hours after seeding, 5 μl of 20× inhibitor compound stock solution was added to the cells so that the final concentration of DMSO was 1%. Media were changed after 24 hours. Forty-eight hours after inhibitor compound treatment, the plates were inverted to remove media and blotted on a paper towel. The plates were then either subjected to enzymatic reactions immediately or were frozen at −20° C. for future assays.
Lysis buffer (20 mM HEPES, pH 7.5, 1 mM EDTA, 0.2 g/l Triton X-100® and 0.2 g/L sodium deoxycholate, supplemented with 1 mM DTT and 1 mM PMSF just before use, 80 μl) were added to each well of the assay plate and allow cell lysis at RT with shaking. Then 15 ul of 5× assay buffer containing final concentrations of 50 mM HEPES, 40 mM KCl, 2.5 mM MgCl2, 5 mM NaArsenate, 1 mM NAD, 2 unit/ml glyceraldehyde-3-phosphate dehydrogenase (GAPDH) was added to the 80 ul of lysate. Reaction kinetics were monitored on a fluorescent plate reader to allow any possible background activity via GAPDH to burn out. Then 5 ul of substrate mix containing final concentrations of 0.5 mM ribose-5-phosphate and 0.5 mM xylulose-5-phosphate was added to initiate the reaction. Monitor reaction kinetics were monitored using a fluorescent plate reader and the slope of the initial linear range was recorded as the velocity of the reaction (FU/min). Enzymatic inhibition was expressed as percent of control wells that were not treated with compounds. The values (y) were plotted as function of the log concentration (x) and fitted to a sigmoidal dose-response curve with variable slopes that bears the equation: y=bottom+(top−bottom)/(1+10^((log EC50-x)*hillslope)).
As to `CCCSS/C(CCO)=C(/C)N(C=O)Cc1ccc(C)nc1N`, the IC50 (commonly the concentration that gives 50% inhibition) was 25 nM.

In turn, `CCCSS/C(CCOP(=O)(OCC)OCC)=C(/C)N(C=O)Cc1ccc(C)nc1N` registered an IC50 of 1040 nM.

As for `CCC(C)SS/C(CCO)=C(/C)N(C=O)Cc1ccc(C)nc1N` (stereo not drawn), the IC50 was determined as 253 nM. The same measure for `C/C(=C(\CCO)SSCC1CCCO1)N(C=O)Cc1ccc(C)nc1N` (stereo not drawn): 24 nM; for `C/C(=C(\CCO)SSCCO)N(C=O)Cc1ccc(C)nc1N`: 13 nM.

Consider `C/C(=C(\CCO)SSCCC(=O)O)N(C=O)Cc1ccc(C)nc1N`, for which the IC50 was 52 nM. Next, `C/C(=C(\CCO)SSCCN1CCCC1)N(C=O)Cc1ccc(C)nc1N`: 198 nM; `C/C(=C(\CCO)SSCCN1CCOCC1)N(C=O)Cc1ccc(C)nc1N`: 70 nM. Next, `CCCSS/C(CCO)=C(/C)N(C=O)Cc1ccc(Cl)nc1N`: 7730 nM; `Cc1ccc(CN(C=O)/C=C(/CCO)SS/C(=C\N(C=O)Cc2ccc(C)nc2N)CCO)c(N)n1`: 102000 nM; `C/C(=C(\CCO)SS/C(CCO)=C(/C)N(C=O)Cc1cccnc1N)N(C=O)Cc1cccnc1N`: 479 nM. Next, `C/C(=C(\CCO)SS/C(CCO)=C(/C)N(C=O)Cc1ccc(C)nc1N)N(C=O)Cc1ccc(C)nc1N`: 10 nM. `CC(=O)N(Cc1ccc(C)nc1N)/C(C)=C(/CCO)SS/C(CCO)=C(/C)N(Cc1ccc(C)nc1N)C(C)=O` showed an IC50 of 32 nM. The same measure for `CC(=O)OCC/C(SS/C(CCOC(C)=O)=C(/C)N(C=O)Cc1ccc(C)nc1N)=C(\C)N(C=O)Cc1ccc(C)nc1N`: 8 nM. For the molecule `C/C(=C(\CCO)SS/C(CCO)=C(/C)N(C=O)Cc1ccc(Cl)nc1N)N(C=O)Cc1ccc(Cl)nc1N`, the IC50 was 5.27 nM. Next, `CCCCS/C(CCO)=C(/C)N(C=O)Cc1ccc(C)nc1N`: 6460 nM; `C/C(=C(\CCO)SCCN1CCCCC1)N(C=O)Cc1ccc(C)nc1N`: 3700 nM; `C/C(=C(\CCO)SCCS(=O)(=O)c1ccccc1)N(C=O)Cc1ccc(C)nc1N`: 1870 nM. Next, `C/C(=C(\CCO)SCOC(=O)C(C)(C)C)N(C=O)Cc1ccc(C)nc1N`: 116 nM; `CC(=O)OCC/C(SCOC(=O)C(C)(C)C)=C(\C)N(C=O)Cc1ccc(C)nc1N`: 25 nM; `CNC(=O)OCS/C(CCO)=C(/C)N(C=O)Cc1ccc(C)nc1N`: 50 nM.

Molecule `C/C(=C(\CCO)SCOC(=O)N(C)C)N(C=O)Cc1ccc(C)nc1N` returned an IC50 of 507 nM. The same measure for `CC(=O)OCC/C(SCOC(=O)N(C)C)=C(\C)N(C=O)Cc1ccc(C)nc1N`: 26300 nM; for `CC(=O)Nc1nc(C)ccc1CN(C=O)/C(C)=C(/CCOC(C)=O)SCOC(=O)N(C)C`: 19400 nM; for `CC(=O)Nc1nc(C)ccc1CN(C=O)/C(C)=C(/CCOC(C)=O)SCOC(=O)C(C)(C)C`: 2480 nM. The same measure for `CC(=O)OCC/C(SC(C)=O)=C(\C)N(C=O)Cc1ccc(C)nc1N`: 50 nM; for `CC(=O)OCC/C(SC(=O)c1ccccc1)=C(\C)N(C=O)Cc1ccc(C)nc1N`: 108 nM. On to `C/C(=C(\CCOC(=O)c1ccccc1)SC(=O)c1ccccc1)N(C=O)Cc1ccc(C)nc1N`, for which the IC50 stood at 28 nM.

`CCOP(=O)(OCC)OCC/C(SC(=O)c1ccccc1)=C(\C)N(C=O)Cc1ccc(C)nc1N` came in with an IC50 of 7160 nM.

For the molecule `C/C(=C1\CCOC(=O)S1)N(C=O)Cc1ccc(C)nc1N`, half-maximal inhibition (IC50) required 15 nM.

For the origin of these results see US7879885B2, “Thioalkeneamides as transketolase inhibitors” (Array Biopharma, Inc., priority 2004, dated 2011).
